From article PMC11358443, “Polymodal K^+ channel modulation contributes to dual analgesic and anti-inflammatory actions of traditional botanical medicines” (Communications Biology, 2024)

Columns and labels:
[1] = molecular target: Kv1.1 (Homo sapiens, UniProt Q09470); parameters: method as in PMID 33093824; details: cited from earlier work
[2] = molecular target: T1, TREK-1 (KCNK2) (Homo sapiens, UniProt O95069); test: TEVC electrophysiology, Xenopus oocytes expressing TREK-1; assay type: cell-based
T1 sequence (O95069 1-426): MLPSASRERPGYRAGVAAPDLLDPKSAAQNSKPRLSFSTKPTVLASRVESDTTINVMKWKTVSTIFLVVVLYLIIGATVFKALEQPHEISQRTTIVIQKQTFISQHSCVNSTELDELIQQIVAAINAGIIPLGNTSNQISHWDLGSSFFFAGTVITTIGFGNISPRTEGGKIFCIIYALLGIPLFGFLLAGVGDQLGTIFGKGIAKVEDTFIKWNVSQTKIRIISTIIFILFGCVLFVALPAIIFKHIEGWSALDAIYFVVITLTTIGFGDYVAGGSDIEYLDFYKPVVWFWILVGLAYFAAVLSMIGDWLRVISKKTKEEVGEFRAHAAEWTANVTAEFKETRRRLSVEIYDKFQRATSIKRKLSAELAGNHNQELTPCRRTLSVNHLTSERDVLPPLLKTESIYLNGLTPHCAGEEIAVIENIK
Description: (§1) We generated human potassium channel cRNA transcripts with the mMessage mMachine kit (Thermo Fisher Scientific, Waltham, MA, USA) according to manufacturer’s instructions, after vector linearization, from cDNA sub-cloned into expression vectors (pTLNx, pXOOM and pMAX). We injected Xenopus laevis oocytes (Xenoocyte, Dexter, MI, USA) with the channel cRNAs (0.5–10 ng) and incubated the oocytes at 16 °C for 1–4 days prior to electrophysiological recording.
(§2) We performed TEVC at 20–23 °C with an OC-725C amplifier (Warner Instruments, Hamden, CT, USA) and pClamp10 software. Chemicals for recording and oocyte storage solutions were from Sigma-Aldrich (St. Louis, MO). Bath solution contained (in mM): 96 NaCl, 4 KCl, 1 MgCl2, 1 CaCl2, 10 HEPES (pH 7.6). Pipettes were 1–2 MΩ resistance when filled with 3 M KCl. We recorded currents in response to voltage pulses between −120 mV or −80 mV and +40 mV at 10 mV intervals from a holding potential of −80 mV, to yield current–voltage relationships and examine activation kinetics. We recorded and analyzed data using Clampfit (Molecular Devices, Sunnyvale, CA, USA) and Graphpad Prism software (GraphPad, San Diego, CA, USA), stating values as mean ± SEM. We calculated the voltage dependence of activation (V0.5) by measuring tail currents at a voltage pulse of −30 mV (Kv7) or −50 mV (Kv1), then fitted the tail current/voltage relationship with a single Boltzmann function:1 g=(A1−A2)/{1+exp[V1/2−V/Vs]}y+A2 where g is the normalized tail conductance, A1 is the initial value at −∞, A2 is the final value at +∞, V1/2 is the half-maximal voltage of activation and Vs the slope factor. We fitted activation and deactivation kinetics with single exponential functions.

[3] = molecular target: native Kv1.3 current in activated human T-cells (Homo sapiens, UniProt P22001); test: Patch-clamp of native Kv1.3 current in activated human T-cells; assay type: cell-based; details: approximation, underestimate of potency (saturation incomplete); read-out: IC50 for human T-cell Kv1.3 current
Description: Human CD4+ T cells from frozen PBMCs ([sequence] Technologies) were isolated with EasySep negative isolation kit ([sequence] Technologies, cat. #17952) according to manufacturers’ protocols. After isolation cells were plated on anti-CD3 (BioLegend, clone OKT3, 2.5 μg/ml), anti-CD28 (BioLegend, clone CD28.2, 2.5 μg/ml)-coated 6-well plate dish at 1.5 × 10^6 cells/well in 3 ml RPMI medium (Gibco) supplemented with 10% FBS (Omega Scientific), 1% L-glutamine (Gibco), 1% non-essential amino acids (Gibco), 1% sodium pyruvate (Gibco), 1% penicillin–streptomycin–amphotericin B (Gibco) and 50 µM, β-mercaptoethanol (Sigma), 30 U/ml recombinant human IL-2 (BioLegend, cat. #589102). Cells were incubated during 48–144 h in 5% CO2 + 95% O2 atmosphere at 37 °C, harvested and plated on poly-lysine coated coverslips; 30–60 min later cells were used in the experiment.
We performed patch clamp experiments at 20–23 °C, acquiring data with an EPC9 patch clamp amplifier (HEKA), a 5 kHz sampling rate and digitally filtering at 1–2 kHz. […] The Kv1.3 currents were recorded in response to 600 ms step pulse from holding potential −80 mV to +40 mV acquired every 30 s. […] The recorded currents were analyzed with Patch Master (HEKA Electronics) and Origin Pro (Origin Lab).

[4] = molecular target: human Kv1.3 (Homo sapiens, UniProt P22001); test: TEVC electrophysiology, Xenopus oocytes expressing Kv1.3; assay type: cell-based; details: for effect of 160 mM [K+]O on Kv1.3 inhibition: versus 4 mM [K+]O
Description: as §1, §2
For wild-type and mutant Kv1.3 channels we calculated conductance–voltage curves from current–voltage relationships recorded in response to voltage pulses between −80 mV to +40 mV in 10 mV intervals from a holding potential of −80 mV. The conductance was calculated by subtracting the driving force (EK):2 Ek=xlnK^+i/K^+o

Chain of human Kv1.3 (P22001 whole entry): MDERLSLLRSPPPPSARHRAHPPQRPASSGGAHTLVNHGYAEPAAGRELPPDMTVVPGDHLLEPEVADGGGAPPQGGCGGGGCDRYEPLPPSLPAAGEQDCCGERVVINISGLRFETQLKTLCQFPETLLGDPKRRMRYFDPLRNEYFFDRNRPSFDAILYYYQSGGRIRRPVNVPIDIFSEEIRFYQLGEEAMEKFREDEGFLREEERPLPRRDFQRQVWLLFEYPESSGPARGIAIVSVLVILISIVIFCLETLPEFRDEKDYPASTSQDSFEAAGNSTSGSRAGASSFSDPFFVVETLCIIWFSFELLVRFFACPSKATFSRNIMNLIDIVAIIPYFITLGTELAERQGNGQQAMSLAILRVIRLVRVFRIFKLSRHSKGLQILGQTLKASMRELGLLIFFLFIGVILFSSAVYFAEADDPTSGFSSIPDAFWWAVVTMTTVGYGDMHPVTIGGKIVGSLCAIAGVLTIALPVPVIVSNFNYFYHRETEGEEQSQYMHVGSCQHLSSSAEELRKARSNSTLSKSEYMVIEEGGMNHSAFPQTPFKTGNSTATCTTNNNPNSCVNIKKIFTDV
Chain of native Kv1.3 current in activated human T-cells (P22001 whole entry): as above
Chain of Kv1.1 (Q09470 whole entry): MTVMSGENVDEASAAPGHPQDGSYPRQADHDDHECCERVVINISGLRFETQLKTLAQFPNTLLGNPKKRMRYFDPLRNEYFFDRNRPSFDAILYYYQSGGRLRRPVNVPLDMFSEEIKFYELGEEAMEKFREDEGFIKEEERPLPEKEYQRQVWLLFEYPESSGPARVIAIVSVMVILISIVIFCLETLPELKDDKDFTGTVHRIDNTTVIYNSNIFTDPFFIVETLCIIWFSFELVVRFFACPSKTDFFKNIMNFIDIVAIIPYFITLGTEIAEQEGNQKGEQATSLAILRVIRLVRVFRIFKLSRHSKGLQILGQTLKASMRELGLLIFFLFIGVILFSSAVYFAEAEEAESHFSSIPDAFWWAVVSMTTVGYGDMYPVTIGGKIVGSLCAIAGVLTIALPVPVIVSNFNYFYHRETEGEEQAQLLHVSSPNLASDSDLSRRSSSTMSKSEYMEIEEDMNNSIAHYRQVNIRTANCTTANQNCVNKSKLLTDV

Substance: tannic acid
- effect on voltage dependence of Kv1.1 [1]: negative-shift
- Current at 0 (mV) ([2]; 10 µM tannic acid, control 0.23 ± 0.03): 0.44 ± 0.08
- Current at 0 (mV) ([2]; 50 µM tannic acid): 0.89 ± 0.11
- Current at 0 (mV) ([2]; 100 µM tannic acid): 1.37 ± 0.14
- Current at 0 (mV) ([2]; 250 µM tannic acid): 1.86 ± 0.19
- Current at 0 (mV) ([2]; 500 µM tannic acid): 2.22 ± 0.24
- increase in KCNK2 current ([2]; at 500 µM, 0 mV): > 10 fold
- EC50 ([2]; current fold increase at 0 mV, read-out: EC50 for KCNK2 (TREK-1) activation): 143 ± 4 µM
- IC50 [3]: 3.3 ± 0.2 µM
- Current at 0 (mV) ([4]; 0.1 µM tannic acid, control 1.99 ± 0.28): 2.39 ± 0.41
- Slope ([4]; 0.1 µM tannic acid, control 4.86 ± 0.31): 4.70 ± 0.45 mV
- V0.5 Normalized tail current ([4]; 0.1 µM tannic acid, control -27.75 ± 1.03): -27.80 ± 2.36 mV
- Current at 0 (mV) ([4]; 1 µM tannic acid): 2.23 ± 0.35
- Slope ([4]; 1 µM tannic acid): 4.73 ± 0.52 mV
- V0.5 Normalized tail current ([4]; 1 µM tannic acid): -28.17 ± 3.08 mV
- Current at 0 (mV) ([4]; 3 µM tannic acid): 1.96 ± 0.31
- Slope ([4]; 3 µM tannic acid): 5.21 ± 0.43 mV
- V0.5 Normalized tail current ([4]; 3 µM tannic acid): -28.73 ± 3.31 mV
- Current at 0 (mV) ([4]; 10 µM tannic acid): 1.09 ± 0.25
- Slope ([4]; 10 µM tannic acid): 7.44 ± 0.95 mV
- V0.5 Normalized tail current ([4]; 10 µM tannic acid): -25.49 ± 4.06 mV
- Current at 0 (mV) ([4]; 30 µM tannic acid): 0.72 ± 0.27
- Slope ([4]; 30 µM tannic acid): 10.91 ± 2.27 mV
- V0.5 Normalized tail current ([4]; 30 µM tannic acid): -19.06 ± 4.68 mV
- time to steady-state block ([4]; 30 µM tannic acid, 2 s depolarizing pulses every 60 s (6 pulses)): 300 ms
- time to steady-state block ([4]; 30 µM tannic acid, 200-ms depolarizing pulses every 60 s (13 pulses)): 700 ms
- effect of 160 mM [K+]O on Kv1.3 inhibition ([4]; 30 µM tannic acid): abolished inhibition
- Current at 0 (mV) ([4]; 100 µM tannic acid): 0.32 ± 0.08
- Slope ([4]; 100 µM tannic acid): 15.18 ± 2.02 mV
- V0.5 Normalized tail current ([4]; 100 µM tannic acid): -9.91 ± 3.45 mV
- effect of 160 mM [K+]O on Kv1.3 inhibition ([4]; 100 µM tannic acid): significantly reduced the efficacy
- IC50 ([4]; prepulse current, read-out: IC50 for Kv1.3 inhibition in oocytes): 12 ± 1.3 µM
- concentrations that depolarized the EM of oocytes expressing Kv1.3 ([4]; unclamped oocytes): above 10 µM
